Results reported in patent US20070155783A1, “Substituted cyclohexyl and piperidinyl derivates as melanocortin-4 receptor modulators” (priority 2003, published 2007).

What was measured:
hMC4-R [1] = biological target: T1, hMC4-R (Homo sapiens, UniProt P32245); experiment: Membrane binding assay, competition with fluorescence labeled NDP-alpha-MSH (fluorescence polarization); details: HEK293 cell membrane preparations expressing human melanocortin receptor
T1 construct: expressed in transfected cells; host or cells: HEK293 cells
Procedure: A membrane binding assay is used to identify competitive inhibitors of fluorescence labeled NDP-alpha-MSH binding to HEK293 cell membrane preparations expressing human melanocortin receptors.
The test compound or unlabeled NDP-alpha-MSH is dispensed at varying concentrations to a 384 well microtiter plate. Fluorescence labeled NDP-alpha-MSH is dispensed at a single concentration, followed by addition of membrane preparations. The plate is incubated for 5 h at room temperature.
The degree of fluorescence polarization is determined with a fluorescence polarization microplate reader.

hMC4-R [2] = biological target: T1, hMC4-R; experiment: Functional cellular cAMP assay in HEK293 cells (fluorescence polarization); assay type: cell-based; details: for EC50: HEK293 cells expressing human melanocortin receptor, cAMP production; for % activation functional assay: cAMP produced compared to stimulation with NDP-alpha-MSH
Procedure: A functional cellular assay, based on competition between unlabeled cAMP and a fixed quantity of fluorescence labeled cAMP for a limited number of binding sites on a cAMP specific antibody, is used to discriminate melanocortin receptor agonists from antagonists by fluorescence polarization.
HEK293 cells expressing one of the human melanocortin receptors are transferred to 384 well microtiter plates, an appropriate amount of cAMP antibody is added, followed by the addition of different concentrations of the test compound to effect cAMP production. Cells are lysed and a fluorescence labeled cAMP conjugate is dispensed. The plate is read on a fluorescence polarization microplate reader and the amount of cAMP produced as a response to a test compound is compared to the production of cAMP resulting from stimulation with NDP-alpha-MSH.
To define antagonistic activity of a test compound, the compound is dispensed at different concentrations to cells stimulated by an appropriate amount of NDP-α-MSH. Inhibition of cAMP production is determined by comparing the inhibition of cAMP production of the test compound to the inhibition of cAMP production by a known inhibitor tested at the same concentrations.

male Wistar rats = experiment: Spontaneous feeding paradigm, food intake in rats; assay type: in vivo, rat; details: 10 mg/kg
Procedure: Food intake in rats is measured after i.p. or p.o. administration of the test compound (see e.g. Chen, A. S. et al. Transgenic Res 2000 April; 9(2):145-54).
3-4 Hours following the onset of the light-phase, individually housed, male Wistar rats (200 -300 g) receive an ip injection or po application of test compound or vehicle in an administration volume of 2 ml/kg. Following the administration of substances (1-30 mg/kg), a pre-weighted amount of normal laboratory chow is placed into the food hopper. Food remaining is measured by hand at 1-2 hour intervals for up to 8 hours. Differences in food intake between test-compound and vehicle-treated rats are evaluated.
Selected Examples of the present invention were active in the rat model at 10 mg/kg after p.o. administration of the test compound using male Wistar rats (n=4-8).

T1 sequence (P32245 whole entry): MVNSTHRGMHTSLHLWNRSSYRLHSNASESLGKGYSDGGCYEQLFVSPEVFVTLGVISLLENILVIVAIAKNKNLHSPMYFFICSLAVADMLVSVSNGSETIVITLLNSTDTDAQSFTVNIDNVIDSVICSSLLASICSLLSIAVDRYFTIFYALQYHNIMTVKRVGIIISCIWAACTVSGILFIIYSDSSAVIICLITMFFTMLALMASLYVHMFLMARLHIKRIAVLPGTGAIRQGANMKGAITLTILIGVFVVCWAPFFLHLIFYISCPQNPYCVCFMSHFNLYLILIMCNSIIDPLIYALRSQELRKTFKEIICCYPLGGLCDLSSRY

O=C(N[C@H](C=C1CCC(c2ccccc2CN2CCCC2=O)CC1)Cc1ccc(Cl)cc1)[C@H]1Cc2ccccc2CN1 (stereo partly shown) [Example 1]
IC50 (hMC4-R [1]): 600 nM
EC50 (hMC4-R [2]): 3300 nM
% activation functional assay (hMC4-R [2]): 100%

O=C(N[C@@H](C=C1CCC(c2ccccc2CN2CCCC2=O)CC1)Cc1ccc(Cl)cc1)[C@H]1Cc2ccccc2CN1 (stereo partly shown) [Example 2]
IC50 (hMC4-R [1]): 300 nM
EC50 (hMC4-R [2]): 300 nM
% activation functional assay (hMC4-R [2]): 97%

O=C(N[C@H](C=C1CCN(c2ccccc2CN2CCCC2=O)CC1)Cc1ccc(Cl)cc1)c1cc(=O)c2ccccc2o1 [Example 17]
IC50 (hMC4-R [1]): 3100 nM
% activation functional assay (hMC4-R [2]): no activation

O=C(N[C@@H](C=C1CCC(c2ccccc2CN2CCCC2=O)CC1)Cc1ccc(Cl)cc1)c1cc(=O)c2ccccc2o1 (stereo partly shown) [Example 18]
IC50 (hMC4-R [1]): 1000 nM
% activation functional assay (hMC4-R [2]): no activation

COc1ccc2oc(C(=O)N[C@@H](C=C3CCC(c4ccccc4CN4CCCC4=O)CC3)Cc3ccc(Cl)cc3)cc(=O)c2c1 (stereo partly shown) [Example 34]
increase in cumulative food intake compared to vehicle (male Wistar rats; 2 hours following administration, p=0.048, n=4): 3100%
increase in cumulative food intake compared to vehicle (male Wistar rats; 4 hours following administration, p=0.092, n=4): 460%
increase in cumulative food intake compared to vehicle (male Wistar rats; 7 hours following administration, p=0.047, n=4): 151%
